Results taken from PubChem BioAssay AID228 (DTP/NCI, 2004).
Values joined by “and” are separate entries in the source; they are usually repeats but may differ in a detail not shown here. Equal values may be shown once. Results filed as inconclusive are left out.

System: BDF1 mice, Friend leukemia sc, tumor weight T/C
Assay: NCI In Vivo Anticancer Drug Screen. Data for tumor model Friend Virus Leukemia (Solid) (subcutaneous) in B6D2F1 (BDF1) mice
Details: endpoint: mean tumor weight, schedule: Q01DX011 (ip), higher = larger tumour
Method: The antitumor activity of compounds was measured in mice bearing transplantable tumors. Survival or tumor size were measured and the results are expressed as the measurement made in the treated group (T) divided by the measurement made in the vehicle treated control group (C). The tumor model used in this assay is Friend Virus Leukemia (Solid) (subcutaneous) in B6D2F1 (BDF1) mice

[1] = dose: 1.25 mg/kg/injection, vehicle: carboxymethylcellulose (CMC)
[2] = dose: 10.0 mg/kg/injection, vehicle: carboxymethylcellulose (CMC)
[3] = dose: 37.5 mg/kg/injection, vehicle: carboxymethylcellulose (CMC)
[4] = dose: 75.0 mg/kg/injection, vehicle: carboxymethylcellulose (CMC)
[5] = dose: 150.0 mg/kg/injection, vehicle: carboxymethylcellulose (CMC)
[6] = dose: 2.0 mg/kg/injection, vehicle: carboxymethylcellulose (CMC)
[7] = dose: 4.0 mg/kg/injection, vehicle: carboxymethylcellulose (CMC)
[8] = dose: 2.5 mg/kg/injection, vehicle: carboxymethylcellulose (CMC)
[9] = dose: 5.0 mg/kg/injection, vehicle: carboxymethylcellulose (CMC)
[10] = dose: 3.0 mg/kg/injection, vehicle: carboxymethylcellulose (CMC)
[11] = dose: 15.0 mg/kg/injection, vehicle: saline
[12] = dose: 30.0 mg/kg/injection, vehicle: saline
[13] = dose: 62.5 mg/kg/injection, vehicle: carboxymethylcellulose (CMC)
[14] = dose: 125.0 mg/kg/injection, vehicle: carboxymethylcellulose (CMC)
[15] = dose: 500.0 mg/kg/injection, vehicle: carboxymethylcellulose (CMC)

SMILES: Nc1ncnc2c1ccn2C1OC(CO)C(O)C1O (configuration not stated)
- T/C (dose: 0.6 mg/kg/injection, vehicle: carboxymethylcellulose (CMC)): 104 % of control
- T/C [1]: 72 % of control

SMILES: Nc1nc2ncc(CNc3ccc(C(=O)NC(CCC(=O)O)C(=O)O)cc3)nc2c(=O)[nH]1 (configuration not stated)
- T/C (dose: 7.0 mg/kg/injection, vehicle: carboxymethylcellulose (CMC)): 56 % of control
- T/C (dose: 14.0 mg/kg/injection, vehicle: carboxymethylcellulose (CMC)): 105 % of control
- T/C (dose: 28.0 mg/kg/injection, vehicle: carboxymethylcellulose (CMC)): 79 % of control
- T/C (dose: 56.0 mg/kg/injection, vehicle: carboxymethylcellulose (CMC)): 70 % of control

SMILES: C[n+]1c(-c2ccccc2)c2cc(N)ccc2c2ccccc21
- T/C (dose: 4.4 mg/kg/injection, vehicle: carboxymethylcellulose (CMC)): 103 % of control
- T/C (dose: 6.6 mg/kg/injection, vehicle: carboxymethylcellulose (CMC)): 117 % of control
- T/C [2]: 53 % of control
- T/C (dose: 15.0 mg/kg/injection, vehicle: carboxymethylcellulose (CMC)): 89 % of control

SMILES: O=C(O)Cc1ccc(C2CCCCC2)cc1
- T/C [3]: 106 % of control
- T/C [4]: 114 % of control
- T/C [5]: 106 % of control
- T/C (dose: 300.0 mg/kg/injection, vehicle: carboxymethylcellulose (CMC)): 94 % of control

SMILES: O=c1[nH]c2cc(Cl)c(Cl)cc2o1
- T/C (dose: 19.0 mg/kg/injection, vehicle: carboxymethylcellulose (CMC)): 90 % of control
- T/C [3]: 81 % of control
- T/C [4]: 82 % of control
- T/C [5]: 77 % of control

SMILES: CCCCn1cnc2c(SC)nc(N)nc21
- T/C (dose: 18.75 mg/kg/injection, vehicle: carboxymethylcellulose (CMC)): 120 % of control
- T/C [3]: 98 % of control
- T/C [4]: 83 % of control
- T/C [5]: 63 % of control

SMILES: C=CCn1c(=O)n(CC=C)c(=O)n(CC=C)c1=O
- T/C (dose: 22.5 mg/kg/injection, vehicle: saline): 77 % of control
- T/C (dose: 45.0 mg/kg/injection, vehicle: saline): 103 % of control
- T/C (dose: 90.0 mg/kg/injection, vehicle: saline): 64 % of control
- T/C (dose: 180.0 mg/kg/injection, vehicle: saline): 82 % of control

SMILES: CCc1ccccc1N1CCN(C(=O)c2cc(OC)c(OC)c(OC)c2)CC1
- T/C (dose: 0.25 mg/kg/injection, vehicle: carboxymethylcellulose (CMC)): 64 % of control
- T/C (dose: 0.5 mg/kg/injection, vehicle: carboxymethylcellulose (CMC)): 73 % of control
- T/C (dose: 1.0 mg/kg/injection, vehicle: carboxymethylcellulose (CMC)): 64 % of control
- T/C [6]: 53 % of control and 35 % of control
- T/C [7]: 67 % of control
- T/C (dose: 8.0 mg/kg/injection, vehicle: carboxymethylcellulose (CMC)): 40 % of control
- T/C (dose: 16.0 mg/kg/injection, vehicle: carboxymethylcellulose (CMC)): 42 % of control
- T/C (dose: 31.0 mg/kg/injection, vehicle: other): 11 % of control

SMILES: O=C(O)CCc1c[nH]c2ccc(N(CCCl)CCCl)cc12
- T/C (dose: 1.2 mg/kg/injection, vehicle: carboxymethylcellulose (CMC)): 107 % of control
- T/C [8]: 92 % of control
- T/C [9]: 114 % of control

SMILES: [I][Hg][CH2]C1COCC([CH2][Hg][I])O1.[I][Hg][CH2]C1COCC([CH2][Hg][I])O1 (configuration not stated)
- T/C [2]: 75 % of control
- T/C (dose: 20.0 mg/kg/injection, vehicle: carboxymethylcellulose (CMC)): 56 % of control
- T/C (dose: 40.0 mg/kg/injection, vehicle: carboxymethylcellulose (CMC)): 77 % of control
- T/C (dose: 80.0 mg/kg/injection, vehicle: carboxymethylcellulose (CMC)): 45 % of control

SMILES: Nc1ccc(C(=O)O)c(O)c1
- T/C (dose: 37.8 mg/kg/injection, vehicle: carboxymethylcellulose (CMC)): 82 % of control
- T/C (dose: 75.7 mg/kg/injection, vehicle: carboxymethylcellulose (CMC)): 101 % of control
- T/C (dose: 151.5 mg/kg/injection, vehicle: carboxymethylcellulose (CMC)): 113 % of control
- T/C (dose: 303.0 mg/kg/injection, vehicle: carboxymethylcellulose (CMC)): 95 % of control

SMILES: O=C(c1ccc(C(=O)N2CC2)cc1)N1CC1
- T/C [10]: 79 % of control
- T/C (dose: 6.0 mg/kg/injection, vehicle: carboxymethylcellulose (CMC)): 90 % of control
- T/C (dose: 12.0 mg/kg/injection, vehicle: carboxymethylcellulose (CMC)): 74 % of control
- T/C (dose: 24.0 mg/kg/injection, vehicle: carboxymethylcellulose (CMC)): 76 % of control

SMILES: N=C(N)c1ccc(Nc2ccc(C(=N)N)cc2)cc1
- T/C (dose: 5.0 mg/kg/injection, vehicle: water): 186 % of control
- T/C (dose: 7.5 mg/kg/injection, vehicle: water): 164 % of control
- T/C (dose: 10.0 mg/kg/injection, vehicle: water): 154 % of control
- T/C (dose: 15.0 mg/kg/injection, vehicle: water): 180 % of control

SMILES: Cc1cc(N(CCCl)CCCl)ccc1N=Nc1ccccc1C(=O)O
- T/C (dose: 5.0 mg/kg/injection, vehicle: saline): 111 % of control
- T/C (dose: 7.5 mg/kg/injection, vehicle: saline): 111 % of control
- T/C (dose: 10.0 mg/kg/injection, vehicle: saline): 105 % of control
- T/C [11]: 60 % of control and 73 % of control
- T/C (dose: 25.0 mg/kg/injection, vehicle: saline): 21 % of control
- T/C [12]: 20 % of control

SMILES: Cn1c(O)c(N=NC(N)=S)c2ccccc21
- T/C [11]: 110 % of control
- T/C [12]: 105 % of control
- T/C (dose: 60.0 mg/kg/injection, vehicle: saline): 108 % of control
- T/C (dose: 120.0 mg/kg/injection, vehicle: saline): 75 % of control
- T/C (dose: 240.0 mg/kg/injection, vehicle: saline): 94 % of control

SMILES: CC(C)(C)c1ccc(S)cc1
- T/C (dose: 25.0 mg/kg/injection, vehicle: carboxymethylcellulose (CMC)): 181 % of control
- T/C (dose: 50.0 mg/kg/injection, vehicle: carboxymethylcellulose (CMC)): 121 % of control
- T/C (dose: 100.0 mg/kg/injection, vehicle: carboxymethylcellulose (CMC)): 85 % of control

SMILES: Nc1ccc2ccccc2c1N=Nc1ccccc1
- T/C [13]: 66 % of control
- T/C [14]: 58 % of control
- T/C [15]: 25 % of control and 27 % of control

SMILES: c1ccc(CSc2ncnc3nc[nH]c23)nc1
- T/C [6]: 88 % of control
- T/C [7]: 46 % of control
- T/C (dose: 9.0 mg/kg/injection, vehicle: carboxymethylcellulose (CMC)): 33 % of control and 39 % of control
- T/C (dose: 18.0 mg/kg/injection, vehicle: carboxymethylcellulose (CMC)): 3 % of control and 7 % of control
- T/C (dose: 37.0 mg/kg/injection, vehicle: carboxymethylcellulose (CMC)): 6 % of control and 18 % of control

SMILES: Cc1nc(N)nc(N)c1-c1ccc(Cl)c(Cl)c1
- T/C (dose: 0.75 mg/kg/injection, vehicle: carboxymethylcellulose (CMC)): 96 % of control
- T/C (dose: 1.5 mg/kg/injection, vehicle: carboxymethylcellulose (CMC)): 105 % of control
- T/C [10]: 59 % of control

SMILES: N[C@@H](Cc1ccc(N(CCCl)CCCl)cc1)C(=O)O
- T/C [1]: 84 % of control
- T/C [8]: 50 % of control
- T/C (dose: 3.75 mg/kg/injection, vehicle: carboxymethylcellulose (CMC)): 53 % of control
- T/C [7]: 35 % of control
- T/C [9]: 35 % of control

SMILES: O=c1[nH]cnc2n[nH]nc12
- T/C [13]: 71 % of control
- T/C [14]: 55 % of control
- T/C (dose: 250.0 mg/kg/injection, vehicle: carboxymethylcellulose (CMC)): 31 % of control and 36 % of control
- T/C [15]: 11 % of control and 17 % of control
